# Assay results: paper PMC4342888, “A search for protein biomarkers links olfactory signal transduction to social immunity” (BMC Genomics, 2015)
# Legend:
# [1] = biological target: T1, Odorant binding protein 16 (OBP16) (Apis mellifera, UniProt A0ACM8Q9Q1); assay: direct fluorescence titration of purified protein
# T1 construct: recombinant mature protein
# T1 sequence (A0ACM8Q9Q1 17-135): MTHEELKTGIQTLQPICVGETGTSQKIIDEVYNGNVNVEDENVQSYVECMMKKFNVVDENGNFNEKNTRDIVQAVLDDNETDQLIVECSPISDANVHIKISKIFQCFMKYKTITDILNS
# [2] = biological target: T2, OBP21 (Apis mellifera, UniProt A0ACM8Q9Q6); assay: direct fluorescence titration of purified protein; format: binding
# T2 construct: purified recombinant protein
# T2 sequence (A0ACM8Q9Q6 17-135): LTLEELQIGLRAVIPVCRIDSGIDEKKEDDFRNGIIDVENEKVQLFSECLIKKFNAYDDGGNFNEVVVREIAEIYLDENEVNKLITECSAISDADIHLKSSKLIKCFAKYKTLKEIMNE
# [3] = biological target: T3, Odorant binding protein 18 (OBP18) (Apis mellifera, UniProt A0ACM8Q9Q2); assay: direct fluorescence titration of purified protein
# T3 construct: recombinant mature protein
# T3 sequence (A0ACM8Q9Q2 17-135): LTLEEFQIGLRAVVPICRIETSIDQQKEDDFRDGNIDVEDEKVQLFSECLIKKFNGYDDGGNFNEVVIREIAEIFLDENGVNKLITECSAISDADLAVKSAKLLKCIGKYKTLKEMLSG
# [4] = biological target: T2, OBP21; assay: biochemical; design: competitive fluorescence displacement of 1-NPN (2 uM) from recombinant OBP, emission 380-450 nm
# Protocol: (§1) The probe was excited at 337 nm and emission spectra were recorded between 380 and 450 nm. […] For determining binding constants, the intensity values corresponding to the maximum of fluorescence emission were plotted against free ligand concentrations. Bound ligand was evaluated from the values of fluorescence intensity assuming that the protein was 100% active, with a stoichiometry of 1:1 protein:ligand at saturation. The curves were linearized using Scatchard plots. Dissociation constants of the competitors were calculated from the corresponding IC50 values (concentrations of ligands halving the initial fluorescence value of 1-NPN), using the equation: KD = [IC50]/1 + [1-NPN]/K1-NPN, [1-NPN] being the free concentration of 1-NPN and K1-NPN being the dissociation constant of the complex Protein/1-NPN.  Figure 7 Potential ligands of OBPs. Twenty nine potential ligands were tested in a competitive binding assay for their binding to OBP16, OBP18 and OBP21. Each purified recombinant protein was mixed with the fluorescent probe N-phenyl-1-naphthylamine (1-NPN), both at the concentration of 2 μM in Tris buffer. Each mixture was titrated with a ligand and the displacement of the fluorescent probe from the complex was used to evaluate the relative dissociation constants, as described in the Methods section. Compounds with higher affinities are shown in the top panel, while compound with lower affinity are shown in the lower panel.
# [5] = biological target: T2, OBP21; assay: biochemical; design: competitive fluorescence displacement of 2 uM 1-NPN from purified recombinant OBP (2 uM), Tris pH 7.4; conditions: IC50 against 2 uM 1-NPN
# Protocol: as §1
# [6] = biological target: T1, Odorant binding protein 16 (OBP16); assay: biochemical; design: competitive fluorescence displacement of 2 uM 1-NPN from purified recombinant OBP (2 uM), Tris pH 7.4; conditions: for IC50: IC50 against 2 uM 1-NPN; for Kd: KD calculated from IC50 of 1-NPN displacement
# Protocol: as §1
# [7] = biological target: T3, Odorant binding protein 18 (OBP18); assay: biochemical; design: competitive fluorescence displacement of 2 uM 1-NPN from purified recombinant OBP (2 uM), Tris pH 7.4; conditions: for IC50: IC50 against 2 uM 1-NPN; for Kd: KD calculated from IC50 of 1-NPN displacement
# Protocol: as §1
SMILES,Kd [4] [µM],IC50 [5] [µM],IC50 [6] [µM],Kd [6] [µM],IC50 [7] [µM],Kd [7] [µM],Kd [1] [µM],Kd [2] [µM],Kd [3] [µM]
"c1ccc(Nc2cccc3ccccc23)cc1 [1-NPN, N-phenyl-1-naphthylamine]",,,,,,,1 to 5,1 to 5,1 to 5
COc1ccccc1/C=C/C=O [2-Methoxycinnamaldehyde],33.9,20,20,9.2,3.8,1.7,,,
Cc1ccccc1C=CC=O [2-Methylcinnamaldehyde],30.5,18,7,3.2,1.2,0.5,,,
OCCc1ccccc1 [2-Phenyl ethanol],,> 20,> 20,,2.5,1.1,,,
CC(=O)OCCc1ccccc1 [2-Phenylethyl acetate],30.5,18,8,3.7,2.5,1.1,,,
CC(C)CC(=O)O [3-Methylbutanoic acid],,> 20,11,5,2.5,1.1,,,
OCc1ccccc1 [Benzyl alcohol],,> 20,9.8,4.5,2.5,1.1,,,
O=C/C=C/c1ccccc1 [Cinnamaldehyde],,> 20,20,9.2,3.4,1.5,,,
CC(C)=CCC/C(C)=C/C=O [Citral],27.1,16,4.4,2,1.6,0.7,,,
CC(C)=CCCC(C)CC=O (stereo not shown) [Citronellal],13.6,8,3.5,1.6,2.5,1.1,,,
COc1cc(/C=C/CO)ccc1O [Coniferyl alcohol],,> 20,18,8.3,3.6,1.6,,,
C=CCc1ccc(O)c(OC)c1 [Eugenol],,> 20,> 20,,2.3,1,,,
COc1cc(CC(=O)O)ccc1O [Homovanillic acid],,> 20,18,8.3,3.2,1.4,,,
COc1cc(CCO)ccc1O [Homovanillic alcohol],,> 20,10.5,4.8,2.7,1.2,,,
C=CC(C)(O)CCC=C(C)C (stereo not shown) [Linalool],,> 20,18,8.3,3,1.3,,,
COC(=O)c1ccc(O)cc1 [Methyl p-hydroxybenzoate],8.5,5,2.5,1.1,1.9,0.8,,,

# Now from value to compound, other results behind:
Kd [4] [µM],IC50 [5] [µM],IC50 [6] [µM],Kd [6] [µM],IC50 [7] [µM],Kd [7] [µM],SMILES,Kd [1] [µM],Kd [2] [µM],Kd [3] [µM]
33.9,20,18,8.3,2.4,1.1,CCCCCC(C)=O [2-Heptanone],,,
3.7,2.2,0.5,0.2,0.2,0.1,"CC(C)CCCC(C)CCO (stereo not shown) [3,7-dimethyloctanol]",,,
6.8,4,3.5,1.6,1.5,0.7,CC(=O)CCCCCCCC(=O)O [9-Ketodecanoic acid],,,
16.9,10,0.7,0.3,0.3,0.1,CCCCCCCCCCCC(=O)O [Dodecanoic acid],,,
,> 20,1.1,0.5,0.2,0.1,CCCCCCCCCCCCCCCC(=O)OCC [Ethyl palmitate],,,
2.5,1.5,1.8,0.8,1.8,0.8,CC(=O)CC/C=C(\C)CCC=C(C)C [Geranylacetone],,,
,> 20,2,0.9,0.1,0.04,CCCCC/C=C\C/C=C\CCCCCCCC(=O)OC [Methyl linoleate],,,
,> 20,0.9,0.4,0.2,0.1,CCCCCCCCCCCCCCCC(=O)OC [Methyl palmitate],,,
,> 20,1,0.5,0.2,0.1,CCCCCCCCCCCCCCCCCC(=O)OC [Methyl stearate],,,
,> 20,1.1,0.5,0.3,0.1,CCCCCCCCC(=O)O [Nonanoic acid],,,
0.6,0.4,1,0.4,0.1,0.1,CCCCCCCC/C=C\CCCCCCCC(N)=O [Oleamide],,,
,> 20,1.1,0.5,0.3,0.1,CC(C)=CCC/C(C)=C/CO [geraniol],,,
3.1,1.8,0.2,0.1,0.2,0.1,CC(=O)OC/C=C(\C)CCC=C(C)C [geranyl acetate],,,
0.4,0.3,0.9,0.4,0.1,0.04,CCCCCCCC/C=C\CCCCCCCC(=O)O [oleic acid],,,
